# Numbering of substitutions follows the chain as printed.
# Experiments:
# FLT3 D835Y = molecular target: T1, FLT3 D835Y (Homo sapiens, UniProt P36888, D835Y); assay: DiscoverX KINOMEscan competition binding, FLT3 D835Y
# T1 construct: host or cells: E. coli BL21-derived host (T7 phage) or HEK-293
# T1 sequence (P36888 27-993 D835Y): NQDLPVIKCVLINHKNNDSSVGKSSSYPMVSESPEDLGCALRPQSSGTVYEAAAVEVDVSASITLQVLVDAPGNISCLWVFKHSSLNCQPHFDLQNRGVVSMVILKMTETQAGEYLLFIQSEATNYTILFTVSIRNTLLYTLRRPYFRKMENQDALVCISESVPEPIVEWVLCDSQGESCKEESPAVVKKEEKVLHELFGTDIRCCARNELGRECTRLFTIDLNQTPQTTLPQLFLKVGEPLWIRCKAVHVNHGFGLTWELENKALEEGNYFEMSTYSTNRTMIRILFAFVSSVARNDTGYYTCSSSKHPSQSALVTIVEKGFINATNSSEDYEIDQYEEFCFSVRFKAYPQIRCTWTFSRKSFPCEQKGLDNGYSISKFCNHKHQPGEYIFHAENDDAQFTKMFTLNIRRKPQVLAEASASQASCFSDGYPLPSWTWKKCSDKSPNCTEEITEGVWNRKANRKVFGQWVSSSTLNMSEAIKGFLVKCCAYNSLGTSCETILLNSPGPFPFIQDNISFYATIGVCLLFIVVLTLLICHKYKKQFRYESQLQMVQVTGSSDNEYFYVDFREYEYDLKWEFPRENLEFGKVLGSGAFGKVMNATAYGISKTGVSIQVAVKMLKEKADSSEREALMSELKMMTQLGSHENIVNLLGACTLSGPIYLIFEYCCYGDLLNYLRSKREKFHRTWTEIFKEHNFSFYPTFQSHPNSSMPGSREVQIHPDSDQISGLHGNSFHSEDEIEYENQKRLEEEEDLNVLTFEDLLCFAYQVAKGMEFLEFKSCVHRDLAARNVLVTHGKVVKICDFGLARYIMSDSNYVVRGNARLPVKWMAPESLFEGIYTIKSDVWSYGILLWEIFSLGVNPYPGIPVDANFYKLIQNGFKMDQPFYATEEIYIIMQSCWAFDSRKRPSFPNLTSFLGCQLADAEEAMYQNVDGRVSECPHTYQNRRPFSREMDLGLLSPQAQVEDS
# Text: (§1) Kinase binding data were obtained for various exemplary compounds prepared according to Examples 1-24 using the DiscoverX KINOMVIEscan® active site-directed competition binding site-directed assay protocol described below. […] As a result, the data report thermodynamic interaction affinities (Kd values), rather than IC50 values that are dependent on ATP concentrations. The assay uses a DNA-tagged version of the protein kinase, and an immobilized ligand bound to a solid support. Compounds that directly or indirectly prevent kinase binding to the immobilized ligand reduce the amount of kinase captured on the solid support, which is detected using an ultra-sensitive qPCR method. Affinity constants reported from the assay have been reported to be independent of the immobilized ligand used that is coupled to the solid support (See supplemental information in Fabian, M. A. et. al., (2005) Nat. Biotechnol. 23, 329-336; Wodicka, L. M. et. al., (2010) Chem. Biol. 17, 1241-1249.)
# (§2) Kinase-tagged T7 phage strains were prepared in an E. coli host derived from the BL21 strain. E. coli were grown to log-phase and infected with T7 phage and incubated with shaking at 32° C. until lysis. The lysates were centrifuged and filtered to remove cell debris. The remaining kinases were produced in HEK-293 cells and subsequently tagged with DNA for qPCR detection. Streptavidin-coated magnetic beads were treated with biotinylated small molecule ligands for 30 minutes at room temperature to generate affinity resins for kinase assays. The liganded beads were blocked with excess biotin and washed with blocking buffer (SeaBlock (Pierce), 1% BSA, 0.05% Tween 20, 1 mM DTT) to remove unbound ligand and to reduce non-specific binding. Binding reactions were assembled by combining kinases, liganded affinity beads, and test compounds in 1× binding buffer (20% SeaBlock, 0.17×PBS, 0.05% Tween 20, 6 mM DTT). Test compounds were prepared as 111× stocks in 100% DMSO. Kds were determined using an 11-point 3-fold compound dilution series with three DMSO control points. All compounds for Kd measurements are distributed by acoustic transfer (non-contact dispensing) in 100% DMSO. The compounds were then diluted directly into the assays such that the final concentration of DMSO was 0.9%. All reactions were performed in polypropylene 384-well plates. Each was a final volume of 0.02 mL. The assay plates were incubated at room temperature with shaking for 1 hour and the affinity beads were washed with wash buffer (1×PBS, 0.05% Tween 20). The beads were then re-suspended in elution buffer (1×PBS, 0.05% Tween 20, 0.5 μM nonbiotinylated affinity ligand) and incubated at room temperature with shaking for 30 minutes. The kinase concentration in the eluates was measured by qPCR.
# (§3) Binding constants (Kds) were calculated with a standard dose-response curve using the Hill equation. The Hill Slope was set to −1. Curves were fitted using a non-linear least square fit with the Levenberg-Marquardt algorithm.
# FLT3 R834Q = molecular target: T2, FLT3 R834Q (Homo sapiens, UniProt P36888, R834Q); assay: DiscoverX KINOMEscan competition binding, FLT3 R834Q
# T2 construct: host or cells: E. coli BL21-derived host (T7 phage) or HEK-293
# T2 sequence (P36888 27-993 R834Q): T1 sequence (P36888 27-993 D835Y) with R808Q, Y809D
# Text: as §1, §2, §3
Kd (FLT3 D835Y) [nM],Kd (FLT3 R834Q) [nM],Compound
0.049,0.17,"CC1(c2cn3c(-c4cccc(N[C@H]5CNC[C@@H]5F)n4)cnc3cn2)CC1 [Compound 1, N-((3S,4S)-4-fluoropyrrolidin-3-yl)-6-(6-(1-methylcyclopropyl)imidazo[1,2-a]pyrazin-3-yl)pyridin-2-amine]"
0.053,0.14,"CC1(c2cn3c(-c4cccc(N[C@@H]5CCNC5)n4)cnc3cn2)CC1 [Compound 3, (R)-6-(6-(1-methylcyclopropyl)imidazo[1,2-a]pyrazin-3-yl)-N-(pyrrolidin-3-yl)pyridin-2-amine]"
0.036,0.13,"CC1(c2cn3c(-c4cccc(N[C@H]5CNCC56CC6)n4)cnc3cn2)CC1 [Compound 5, (R)-N-(6-(6-(1-methylcyclopropyl)imidazo[1,2-a]pyrazin-3-yl)pyridin-2-yl)-5-azaspiro[2.4]heptan-7-amine]"
0.044,0.81,"FC(F)(F)C1(c2cn3c(-c4cccc(N[C@@H]5CCNC5)n4)cnc3cn2)CC1 [Compound 10, (R)-N-(pyrrolidin-3-yl)-6-(6-(1-(trifluoromethyl)cyclopropyl)imidazo[1,2-a]pyrazin-3-yl)pyridin-2-amine]"
0.053,1.3,"FC(F)c1cn2c(-c3cccc(N[C@H]4CNC[C@@H]4F)n3)cnc2cn1 [Compound 16, 6-(6-(difluoromethyl)imidazo[1,2-a]pyrazin-3-yl)-N-((3S,4S)-4-fluoropyrrolidin-3-yl)pyridin-2-amine]"
0.071,0.47,"FC(F)c1cn2c(-c3cccc(N[C@H]4CNCC[C@@H]4F)n3)cnc2cn1 [Compound 25, 6-(6-(difluoromethyl)imidazo[1,2-a]pyrazin-3-yl)-N-((3S,4S)-4-fluoropiperidin-3-yl)pyridin-2-amine]"
0.47,4.3,"CC(C)(O)c1cn2c(-c3cccc(N[C@@H]4CCCNC4)n3)cnc2cn1 [Compound 30, (R)-2-(3-(6-(piperidin-3-ylamino)pyridin-2-yl)imidazo[1,2-a]pyrazin-6-yl)propan-2-ol]"
0.18,2.2,"CC(C)(O)c1cn2c(-c3cccc(N[C@H]4CNCC[C@@H]4F)n3)cnc2cn1 [Compound 31, 2-(3-(6-(((3S,4S)-4-fluoropiperidin-3-yl)amino)pyridin-2-yl)imidazo[1,2-a]pyrazin-6-yl)propan-2-ol]"
0.035,1.2,"FC(F)(F)COc1cn2c(-c3cccc(N[C@@H]4CCNC4)n3)cnc2cn1 [Compound 38, (R)-N-(pyrrolidin-3-yl)-6-(6-(2,2,2-trifluoroethoxy)imidazo[1,2-a]pyrazin-3-yl)pyridin-2-amine]"
0.044,0.2,"F[C@H]1CNC[C@@H]1Nc1cccc(-c2cnc3cnc(C4CC4)cn23)n1 [Compound 50, 6-(6-cyclopropylimidazo[1,2-a]pyrazin-3-yl)-N-((3S,4S)-4-fluoropyrrolidin-3-yl)pyridin-2-amine]"
0.064,0.19,"Cn1cc(-c2cn3c(-c4cccc(N[C@H]5CNC[C@@H]5F)n4)cnc3cn2)cn1 [Compound 52, N-((3S,4S)-4-fluoropyrrolidin-3-yl)-6-(6-(1-methyl-1H-pyrazol-4-yl)imidazo[1,2-a]pyrazin-3-yl)pyridin-2-amine]"

# Reference: patent US12612410B2 (CHILDREN'S HOSPITAL MEDICAL CENTER, priority 2020, dated 2026)
